From US20060276844A1, “Ingestible device for nitric oxide production in tissue” (priority 2005, published 2006)

Columns and labels:
rat jejunum [1] = experiment: NO-signal-enhanced drug permeation in rat jejunum in vitro, with NOS inhibitor L-NAME (FIGS. 2-3); assay type: in vitro ADME; settings: 1 mM L-NAME plus NO signal (5 mA, 1 ms, 18 Hz), rat jejunum segments
Source text: Reference is made to FIGS. 2 and 3, which are graphs showing in vitro experimental results measured in accordance with an embodiment of the present invention. These experiments assessed the effect of the application of an electrical signal configured to enhance NO-associated drug permeation, which is inhibited by non-specific NOS inhibitor NG-Nitro-L-Arginine methyl ester (L-NAME) in rat jejunum in vitro. The NO-releasing electrical signal (hereinbelow, the “NO signal”) was applied with the following parameters: an amplitude of 5 mA, a pulse width of 1 ms, and a frequency of 18 Hz. In the experiment shown in FIG. 2, 1 mg/ml octreotide was applied to 11 segments of rat jejunum. The NO signal alone was applied to six of the segments, 1 mM L-NAME alone was applied to two of the segments, and the NO signal and 1 mM L-NAME were applied to three of the segments. In the experiment shown in FIG. 3, 1 mg/ml leuprolide was applied to 14 segments of rat jejunum. The NO signal alone was applied to three of the segments, 1 mM L-NAME alone was applied to two of the segments, the NO signal and 1 mM L-NAME were applied to three of the segments, and no treatment was applied to the remaining six segments.

rat jejunum [2] = experiment: Octreotide permeation in rat jejunum in vitro: electrical stimulation versus NO donor (FIG. 4); assay type: in vitro ADME
Description: FIG. 4 is a graph showing in vitro experimental results measured in accordance with an embodiment of the present invention. In this experiment, the permeation-enhancing effect of electrical stimulation in rat jejunum in vitro was compared with the effect of an NO donor, molsidomine (SIN-10) (exogenous nitric oxide). The NO signal alone was applied to six segments of rat jejunum, 1 mM SIN-10 alone was applied to four segments, the NO signal and 1 mM SIN-10 were applied to three segments, and no treatment was applied to six segments.

| SMILES | effect on NO-signal-enhanced drug permeation (octreotide) (rat jejunum [1]; FIG. 2, 1 mg/ml octreotide) | effect on NO-signal-enhanced drug permeation (leuprolide) (rat jejunum [1]; FIG. 3, 1 mg/ml leuprolide) | rate of octreotide transepithelial transport compared with electrically-induced absorption (rat jejunum [2]; 1 mM SIN-10 alone) | effect of combination with electrical stimulation on enhanced permeation of octreotide, versus electrical stimulation alone (rat jejunum [2]; NO signal plus 1 mM SIN-10) |
| --- | --- | --- | --- | --- |
| COC(=O)[C@@H](N)CCCNC(=N)N[N+](=O)[O-] [L-NAME, NG-Nitro-L-Arginine methyl ester] | nearly prevented | nearly prevented |  |  |
| CCOC(=O)[N-]c1cn(N2CCOCC2)n[o+]1 [SIN-10, molsidomine] |  |  | similar | did not augment |
